Read-outs that look alike come from different tables or passages of the source.
Columns and labels:
[1] = DPPH radical scavenging (antioxidant) assay; conditions: for IC50: isolated compounds
Experimental: Free radical scavenging activity of the test fractions/compounds was determined by measuring the change in absorbance of DPPH (l, l-Diphenyl-2-picrylhydrazyl radical, Sigma-Aldrich, St Louis, MO, USA) at 515 nm by the microplate reader (SpectraMax M2, Molecular Devices, CA, USA) as previously described. […] The IC50 values of the tested compounds were calculated using nonlinear regression through GraphPad Prism 4 software (La Jolla, CA, USA).

bovine erythrocyte CA-II = target: T1, bovine erythrocyte CA-II (Bos taurus, UniProt P00921); assay: Carbonic anhydrase II inhibition (4-nitrophenyl acetate); assay type: biochemical; set-up: % Inhibition: concentration or dose not given beside the values; conditions: CA-II in vitro; for IC50: read-out: IC50 (µM) ± (SEM)
T1 construct: purified bovine erythrocyte CA-II; purchased Sigma-Aldrich; host or cells: bovine erythrocytes (natural source)
Experimental: The total reaction volume of 200 µL included 20 µL of test compounds prepared in DMSO, followed by the addition of 140 µL of the HEPES–tris buffer, 20 µL of purified bovine erythrocyte CA-II (0.1 mg/mL) prepared in buffer, and 20 µL of a solution of 4-nitrophenyl acetate. A 20 µL amount of test compound was incubated with the enzyme (EC 4.2.1.1, Sigma-Aldrich, St. Louis, MO, USA) for 15 min in a 96-well flat-bottom plate. The rate of product formation was monitored with the addition of 20 µL of 4-NPA as substrate, prepared in methanol at the final concentration of 0.7 mM, at 25 °C for 30 min with regular intervals of 1 min, by using microplate readers (Bio-Rad, Molecular Devices, CA, USA). HEPES-tris was used as a buffer for the reaction at the final concentration of 20 mM at pH 7.4. The percent inhibition was calculated by using the following formula:% Inhibition = 100 − (OD test well/OD control) × 100

[2] = MTT cytotoxic activity assay on MDA-MB-231 breast cancer cells; assay type: cell-based, human; conditions: human, MDA-MB-231 breast cancer cells; for viability at 24 h, 25 µM / viability at 24 h, 75 µM: read-out: cell viability; for viability at 24 h, 75 µM: MDA-MB-231, 75 µM
Experimental: (§1) Cytotoxic activity was performed according to the previously described methods. Breast cancer cell lines MDA-MB-231 were maintained in Dulbecco’s modified eagle medium (DMEM, Invitrogen, Carlsbad, CA, USA). The media was supplemented with 10% fetal bovine serum (FBS) and 1% antimycotic antibiotic (Invitrogen, Carlsbad, CA, USA). Cells were cultured in a 5% CO2-humidified atmosphere at 37 °C. Stock solution (5 mg/mL) of 3-(4,5-dimethylthiazol-2-yl)-2,5-diphenyltetrazolium bromide (MTT, Merck, Darmstadt, Hesse, Germany) was prepared in phosphate-buffered saline (PBS).
(§2) Cells were seeded at a density of 1 × 10^4 cells per well in 96-well microtiter culture plates. After overnight incubation, normal growth medium was removed and replaced with either fresh medium (untreated control) or different concentrations of respective compounds in growth medium diluted from a 2 mM stock. After 24 h of incubation, MTT solution was added to each well (0.1 mg/mL in DMEM) and incubated further for 4 h at 37 °C. Upon termination, the supernatant was aspirated and the MTT formazan, formed by metabolically viable cells, was dissolved in a solubilization solution containing DMSO (100 սL) by mixing for 5 min on a gyratory shaker. The absorbance was measured at 540 nm (reference wavelength 690 nm) on an Ultra Multifunctional Microplate Reader (Bio-Rad, Hercules, California, USA). Absorbance of control (without treatment) was considered as 100% cell survival. Each treatment had three replicate wells [56]. The IC50 values of the active compounds were calculated using nonlinear regression through GraphPad Prism 4 software (La Jolla, CA, USA).

[3] = tested on: MDA-MB-231 breast cancer cells; assay: as above; assay type: cell-based, human; conditions: for IC50: MDA-MB-231, MTT, 24 h incubation, read-out: IC50 (Mean ± SEM)
Experimental: as §1, §2

[4] = reported earlier by the group; cited from earlier work

T1 sequence (P00921 whole entry): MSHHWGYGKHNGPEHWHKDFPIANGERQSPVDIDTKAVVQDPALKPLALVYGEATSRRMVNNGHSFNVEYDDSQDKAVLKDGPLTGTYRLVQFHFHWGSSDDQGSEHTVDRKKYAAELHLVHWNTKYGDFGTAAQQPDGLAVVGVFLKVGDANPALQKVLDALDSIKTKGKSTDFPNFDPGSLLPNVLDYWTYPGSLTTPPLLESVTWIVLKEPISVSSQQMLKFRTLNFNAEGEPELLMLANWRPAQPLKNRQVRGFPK

## O=C1O[C@H]([C@@H](O)CO)C(O)=C1O [Ascorbic acid, reference compound]
[1]; concentration = 1 mg/mL
  Antioxidant % Inhibition: 90%
[1]; fractions and standard
  Antioxidant IC50 ± SEM: 53 ± 1.32 µg/mL

## C=C1CC[C@H]2C(=C)CC[C@H]3C(=C)C(=O)O[C@@H]3[C@@H]12 [Compound 1, dehydrocostus lactone]
[1]
  antioxidant activity (in words): moderate activity
Bovine erythrocyte CA-II
  % Inhibition: 33%
  IC50 (µM) ± (SEM): inactive
[2]; MDA-MB-231, 25 µM
  viability at 24 h, 25 µM: 76%
[3]; Homo sapiens, MDA-MB-231, 24 h
  IC50: 35.4 ± 2.56 µM
[3]; Homo sapiens, MDA-MB-231, 100 µM, read-out: inhibition of cell proliferation
  inhibition at 100 µM: 92.1%

## C=C1C(=O)O[C@@H]2/C=C(\C)CC/C=C(\C)CC[C@@H]12 [Compound 2, costunolide]
Bovine erythrocyte CA-II
  % Inhibition: 84.7%
  IC50: 24.4 µM
[2]; MDA-MB-231, 25 µM
  viability at 24 h, 25 µM: 81 to 89%
[3]; Homo sapiens, MDA-MB-231, 24 h
  IC50: 42.1 ± 2.98 µM

## C=C1C(=O)OC2C1CCC(O)C1(C)CCC(C)(O)C21 (stereo not shown) [Compound 3, lyciumate]
[2]; MDA-MB-231, 25 µM
  viability at 24 h, 25 µM: 81 to 89%
[3]; Homo sapiens, MDA-MB-231, 24 h
  IC50: 49.4 ± 3.73 µM

## Oc1cc(O)c2c(c1)O[C@H](c1ccc(O)c(O)c1)[C@@H](O)C2 [Compound 4, catechin]
[1]
  % Inhibition (1 mM): 78%
  IC50: 55 ± 2 µM
[3]; Homo sapiens, MDA-MB-231, 24 h
  IC50: 101 ± 7.09 µM

## O=C1c2cccc(O)c2C(=O)c2c(O)cc(CO)cc21 [Compound 5, aloe emodin]
Bovine erythrocyte CA-II
  % Inhibition: 86.3%
  IC50: 14.4 ± 1.14 µM
[3]; Homo sapiens, MDA-MB-231, 24 h
  IC50: ~31 µM
[3]; MDA-MB-231, 25 µM
  loss of cell viability: 50.53%
[3]
  IC50: 31.4 ± 2.44 µM

## Cc1cc(O)c2c(c1)C(=O)c1cc(O)cc(O)c1C2=O [Compound 6, emodin]
[1]
  % Inhibition (1 mM): 71%
  IC50: 645 ± 1.5 µM
[3]; Homo sapiens, MDA-MB-231, 24 h
  IC50: 73 µM
[3]
  IC50: 73.5 ± 5.89 µM

## CC1OC(OCc2cc(O)c3c(c2)C(=O)c2cccc(O)c2C3=O)C(O)C(O)C1O (stereo not shown) [Compound 8, aloe emodine 11-O-rhamnoside]
[2]; MDA-MB-231, 25 µM
  viability at 24 h, 25 µM: 81 to 89%
[3]; Homo sapiens, MDA-MB-231, 24 h
  IC50: 72 µM
[3]
  IC50: 72.2 ± 6.29 µM

## O=C(/C=C/c1ccccc1)O[C@@H]1O[C@H](CO)[C@@H](O)[C@H](O)[C@H]1OC(=O)c1cc(O)c(O)c(O)c1 [Compound 9, lyciumaside]
[4]
  antioxidant IC50: 30 µg/mL
[2]; MDA-MB-231, 25 µM
  viability at 24 h, 25 µM: 81 to 89%
[3]; Homo sapiens, MDA-MB-231, 24 h
  IC50: 76 µM
[3]; MDA-MB-231, 25 µM
  cytotoxic effect / cell growth inhibition: did not inhibit cell growth significantly
[3]; MDA-MB-231, 100 µM
  loss of cell viability: approximately 70%
[3]
  IC50: 76.9 ± 7.04 µM
[3]; MDA-MB-231, concentrations above 50 µM
  cell growth inhibition: above 50%

## O=C1c2c(O)cccc2[C@](O)([C@@H]2O[C@H](CO)[C@@H](O)[C@H](O)[C@H]2O)c2cc(CO)cc(O)c21 [Compound 10, 10-hydroxy aloin A]
[2]
  viability at 24 h, 75 µM: 77%
[3]; Homo sapiens, MDA-MB-231, 24 h
  IC50: 143 ± 12.7 µM
[3]; MDA-MB-231, 25 µM
  cytotoxic effect / cell growth inhibition: growth-promoting effect

## C[C@@H]1O[C@@H](OCc2cc(O)c3c(c2)[C@H]([C@@H]2O[C@H](CO)[C@@H](O)[C@H](O)[C@H]2O)c2cccc(O)c2C3=O)[C@H](O)[C@H](O)[C@H]1O [Compound 11, aloinoside B]
[2]
  viability at 24 h, 75 µM: 64%
[3]; Homo sapiens, MDA-MB-231, 24 h
  IC50: 140 ± 13.1 µM
[3]; MDA-MB-231, 25 µM
  cytotoxic effect / cell growth inhibition: no cell growth inhibition

## COc1cc(=O)oc2cc(O)cc(C)c12 [Compound 12, 7-demethylsiderin]
Bovine erythrocyte CA-II
  % Inhibition: 91.2%
  IC50: 23.3 ± 1.63 µM
[2]; MDA-MB-231, 25 µM, read-out: cytotoxic effect / cell growth inhibition
  inhibition at 24 h, 25 µM: ~14%
[2]
  viability at 24 h, 75 µM: 44%
[3]; Homo sapiens, MDA-MB-231, 24 h
  IC50: 60.1 ± 4.82 µM

## CC(=O)Cc1cc(=O)c2c(C)cc(O)c(C3OC(COC(=O)C=Cc4ccc(O)cc4)C(O)C(O)C3O)c2o1 (stereo not shown) [Compound 13, 6′-O-coumaroylaloesin]
[1]
  % Inhibition (1 mM): 73%
  IC50: 762 ± 2 µM

## C[C@@H]1C[C@@H](O)Cc2cc(O)cc(O)c21 [Compound 14, feroxidin]
[1]
  % Inhibition (1 mM): 80%
  IC50: 241 ± 1.5 µM

## COc1cccc2c1C(=O)c1c(O)c3c(c(O)c1C2=O)C[C@@](O)(C(=O)CO)C[C@@H]3O[C@H]1C[C@H](N)[C@H](O)[C@H](C)O1 [Doxorubicin, reference compound]
[3]; Homo sapiens, MDA-MB-231, 24 h
  IC50: 3.31 ± 0.19 µM

Reference: PMC7281707, “Antiproliferative and Carbonic Anhydrase II Inhibitory Potential of Chemical Constituents from Lycium shawii and Aloe vera: Evidence from In Silico Target Fishing and In Vitro Testing” (Pharmaceuticals, 2020)
